Test results as given in ChEMBL document CHEMBL3988442, “University of Dundee, Small-Polar-MMV Screening Library” (2021).

Legend:
[1] = microbe, parasite or virus in culture; details: Mycobacterium tuberculosis, 96 h, read-out: pIC50 (converted)
[2] = microbe, parasite or virus in culture; details: Mycobacterium tuberculosis, 72 h, read-out: pIC50 (converted)

Row | SMILES | IC50 [1] [µM] | IC50 [2] [µM]
1 | CN(C(=O)CN1CCCC1Cc1ccccc1)c1ccccc1 (stereo not given) | > 50.1 | 33
2 | CSCc1ccc(C(=O)NCCCNc2ccc(C(F)(F)F)cn2)cc1 | > 50.1 | > 50.1
3 | CN(Cc1ccco1)C(=O)CCc1ccc(C#N)cc1 | 77.4 | 31.7
4 | CCOc1cc([C@H]2N[C@@H](c3nc(C)cs3)Cc3ccsc32)ccc1OC | > 50.1 | 12.8
5 | O=S(=O)(NC1CCCC1)c1cncc(Cl)c1 | > 501 | 226
6 | N#Cc1ccc(C(=O)NCC2CC2)cc1 | 123 | 123
7 | CC(=O)c1ccccc1NC(=O)CN1CC[C@H](N)C1 | > 501 | 158
8 | CC(C)(C)OC(=O)N1CCN(c2ccnc(N)c2)CC1 | > 501 | > 501
9 | O=S(=O)(CCc1ccccc1)Cc1nc(C2CC2)no1 | 10.7 | 10.6
10 | COc1ccc(CCNc2ccc3nnnn3n2)cc1 | > 501 | > 501
11 | CN(CCOc1ccc(Cl)cc1)C(=O)C(C)(C)CN | 276 | 216
12 | Cc1nnc(SCCC(=O)N(C)Cc2ccc(Cl)s2)[nH]1 | 27.3 | > 50.1
13 | COCCC(C)NC(=O)Nc1ccc(C#N)cc1 (stereo not given) | 159 | 232
14 | CN1CCN(C(=O)CC2Cc3ccccc3C2)CC1 | 43.7 | 96
15 | Clc1ccc2c(c1)CNCCO2 | 67.8 | 33.4
16 | Cc1ccc(CNC(=O)c2cnn(C)c2)cc1F | > 501 | 275
17 | CCOC(=O)c1cc(C(C)(O)CCC=C(C)C)on1 (stereo not given) | 25.8 | 36.4
18 | Cc1ccccc1N1C(=O)C=CC1=O | 254 | 157
19 | CC(C)N1[C@H](CN2CCCC2)C[C@@H]2CN(Cc3ccoc3)CC[C@@H]21 | > 50.1 | > 50.1
20 | CC1CCCN(c2cc(CNS(C)(=O)=O)ccn2)C1 (stereo not given) | 277 | 449
21 | CC(C)Oc1ccc(CN)cc1 | > 501 | 284
22 | COc1cccc(CNc2cncc(SC)n2)n1 | 176 | 139
23 | O=C(CCC1CCCC1)N1CCC(c2cc3ncccc3c(O)n2)CC1 | 0.855 | > 50.1
24 | CC(NC(=O)c1ccc(Cl)c(I)c1)C(=O)N(C)C (stereo not given) | > 501 | > 501
25 | O=C(Cc1cn2ccsc2n1)NCC1CCC1 | 179 | 282
26 | CC(=O)c1ccc(C(=O)Nc2ccnc(N(C)C)n2)cc1 | > 50.1 | > 50.1
27 | CS(=O)(=O)N1CCc2[nH]cnc2C12CCN(C(=O)c1ccccc1)CC2 | > 50.1 | > 50.1

Row | SMILES | IC50 [1] [µM] | IC50 [2] [µM]
28 | Cc1noc(CSc2ccc(C(=O)N3CCC3)cc2)n1 | > 501 | > 501
29 | O=C(Cc1cccs1)Nc1cnn(C2CCOC2)c1 (stereo not given) | > 50.1 | > 50.1
30 | CC(C)CCC(=O)N1CCN(CC(O)C(F)(F)F)CC1 (stereo not given) | 30.2 | 42
31 | CN(C)C(=O)c1csc2c1CCCC2 | 186 | 271
32 | Cc1cnn(CCNc2ccc(F)cn2)c1 | > 501 | 365
33 | Cc1cc(C(=O)NCCCN(C)CC(F)(F)F)no1 | > 501 | > 501
34 | Nc1ncnc2[nH]c(N3CCCCC3)nc12 | > 50.1 | > 50.1
35 | CSc1ccc(CC(=O)N(C)Cc2ccon2)cc1 | > 501 | > 501
36 | O=C(NC1CC1)N1CCN(c2ncccc2Cl)CC1 | > 501 | > 501
37 | CC1CCCCN1S(=O)(=O)N1CCNCC1 (stereo not given) | > 501 | > 501
38 | CC(C)CS(=O)(=O)NCc1ccc2c(c1)OCO2 | > 501 | 183
39 | Cc1cc(S(=O)(=O)N2CCCC2CN)sc1C (stereo not given) | > 501 | 141
40 | CN(C(=O)CC1=CCCCC1)C1CCCN(C2Cc3ccccc3C2)C1 (stereo not given) | > 50.1 | > 50.1
41 | CCc1ccc(CN2CC(N3CCOCC3)C2)o1 | 188 | 129
42 | c1cnnc(N2CCCC2CNCc2nc3ccccc3o2)c1 (stereo not given) | 32.7 | 29.6
43 | Cc1ccc2c(c1)nc(CN)n2C | 348 | 231
44 | NC1CCN(c2ccccc2OC(F)F)C1 (stereo not given) | > 501 | 135
45 | CCCc1nc(C)cc(N2CCC3(CCC(=O)N(CCO)C3)CC2)n1 | > 50.1 | > 50.1
46 | Cc1nsc(C(=O)NCCc2ccc(Cl)cc2)n1 | 12.7 | 19.4
47 | CN(C1(C#N)CCC1)S(=O)(=O)c1ccccc1 | > 501 | > 501
48 | COc1ccc(-n2cc(CNC(=O)c3ccccn3)nn2)cc1 | > 50.1 | > 50.1
49 | CC(C)CC(C(=O)N(C)Cc1ncnn1C)N1CCCCC1=O (stereo not given) | > 50.1 | > 50.1
50 | Cn1cc(Br)cc1C(=O)NCC1CCCO1 (stereo not given) | > 501 | 225
51 | Cc1ccc(C(=O)Nc2cnn(C)c2)cn1 | > 501 | > 501
52 | CN(CC(N)=O)Cc1ccccc1N1CCCC1 | > 501 | 278
53 | Cc1nc2c(c(NCc3nc4ccccc4s3)n1)CCNCC2 | 45.8 | 23.7
54 | CCC(C)NC(=O)c1cc(F)cc(F)c1 (stereo not given) | 229 | 130

Row | SMILES | IC50 [1] [µM] | IC50 [2] [µM]
55 | CN(C)C(=O)CN1CCOC(CCc2ccccc2)C1 (stereo not given) | > 501 | > 501
56 | CCc1ccc(C(=O)N2CCN(Cc3ccc(F)cc3)CC2)s1 | 28.4 | 19.9
57 | O=C1OCCC1Sc1nnc(Nc2ccccc2)s1 (stereo not given) | > 501 | 455
58 | CN(C)S(=O)(=O)NCCNc1ccc2ccccc2n1 | 326 | 419
59 | CN(Cc1ccco1)C(=O)CN1CCc2sccc2C1 | 89.2 | 60
60 | CCCc1ccc(N2CCN(Cc3nc4ccccc4n3C)CC2)cc1 | > 50.1 | 26
61 | CN(C)c1nc(N)nc(CN2CCCC(c3ccccc3)CC2)n1 (stereo not given) | > 50.1 | > 50.1
62 | Cc1cnc(N2C(=O)CSC2c2ccc(N(C)C)cc2)s1 (stereo not given) | 5.45 | 7.14
63 | Cn1c2c(c(=O)n1C)CN(C(=O)c1ccco1)CCC2 | > 50.1 | > 50.1
64 | CC1CN(CCC(=O)NC(N)=O)CCO1 (stereo not given) | 286 | 80.3
65 | Cc1cc(Br)oc1C(=O)Nc1ncccc1O | 157 | 322
66 | CSCCOC(=O)c1ccn(C(C)C)n1 | 248 | 241
67 | CCc1ccc(C(=O)CSc2nnc(N)[nH]2)cc1 | 449 | 176
68 | COCCCNC(=O)C1=Cc2ccccc2OC1 | 115 | 119
69 | Clc1ccc(OCCc2cc(C3CCN(c4ncccn4)C3)n[nH]2)cc1 (stereo not given) | 26.1 | 40
70 | CN(CCC#N)C(=O)COC(=O)c1ccccc1Br | > 501 | 139
71 | Cn1nc(C2CCCN(Cc3cc(F)ccc3F)C2)c2nccnc21 (stereo not given) | > 50.1 | > 50.1
72 | CCOc1ccccc1NC(=O)CSc1c[nH]nn1 | 195 | > 501
73 | CN(Cc1cc(Br)cs1)C(=O)CC1(N)CCC1 | > 501 | 158
74 | COCCCN(C)c1nc(-c2ccncc2)nc(C)c1C | 6.84 | 11.8
75 | CC1c2ccsc2CCN1CCC(=O)NC(N)=O (stereo not given) | 128 | 78.1
76 | CC(=O)Nc1nc(COc2ccc(C)cn2)cs1 | 244 | 237
77 | COc1ccccc1NC(=O)c1ccc(C)nc1 | > 501 | > 501
78 | O=C(NCC1CCN(C2CC2)C1)c1ccccc1F (stereo not given) | 376 | 423
79 | COCCN1CCC(CNCc2c[nH]nc2C(C)(C)C)CC1 | > 50.1 | 39.9
80 | CC(CNC(=O)c1ccncc1)c1ccccc1 (stereo not given) | > 501 | 189
81 | CC(C)c1csc(C(=O)N2CCOc3ncccc32)n1 | 231 | 139

Row | SMILES | IC50 [1] [µM] | IC50 [2] [µM]
82 | Nc1cc(=O)[nH]n1-c1ccc(C(F)(F)F)cn1 | 308 | 197
83 | CNC(=O)CCN1CCC(=Cc2ccccc2)CC1 | > 501 | 258
84 | CN(C)S(=O)(=O)c1ccc(F)c(NC(=O)COCC2CC2)c1 | > 50.1 | 10.3
85 | CCOc1ccc(Cl)cc1CCNS(=O)(=O)N(C)C | 282 | 245
86 | O=C(CSc1nnnn1Cc1cccs1)NC1CC1 | 216 | 492
87 | COCCNc1ccc(C#N)cc1 | 280 | > 501
88 | NC(=O)NC(=O)CCN1CCCc2c(Br)cccc2C1 | 96 | 48
89 | CC(C)c1cc(C(=O)N(C)C(C)c2ccon2)on1 (stereo not given) | 437 | > 501
90 | NCCCC(=O)N(Cc1ccccc1F)C1CCC1 | > 501 | 231
91 | Cc1nc(N(C)C/C=C/c2ccccc2)c2cnn(C)c2n1 | > 50.1 | > 50.1
92 | CC(C)S(=O)(=O)CCCn1nnc(-c2ccsc2)n1 | 94.9 | 56.7
93 | CC(=O)N1CCCC1c1nnn2cc(-c3ccncc3)ccc12 (stereo not given) | > 50.1 | > 50.1
94 | NC(=O)CN1CCC(OCCCc2ccccc2)C1 (stereo not given) | 369 | 246
95 | O=C(NCCOc1ncccc1Cl)c1cc(Cl)c[nH]1 | 287 | 188
96 | CC(C)OCCn1nnnc1Cc1ccc(Br)cc1 | 14.5 | 35.5
97 | COCc1ccc(SCC(=O)N(C)C)cc1 | > 501 | > 501
98 | Cc1nc(-c2nnc[nH]2)sc1C(=O)N1CCCC1Cn1cccn1 (stereo not given) | > 50.1 | > 50.1
99 | CC(C)(O)Cn1nnc(-c2cccs2)n1 | > 501 | > 501
100 | CC(CN)c1nc(-c2ccccc2)no1 (stereo not given) | 410 | 179
101 | O=C(O)[C@@H]1CN(C(=O)NCC2CCCCC2)C[C@H]1c1ccccn1 | > 50.1 | > 50.1
102 | CCc1cc(C)c(C(=O)Nc2ccc(C(N)=O)nc2)o1 | 69.6 | 56.5
103 | CNCC(O)CN1CCc2ccccc2CC1 (stereo not given) | 289 | 254
104 | COCCNC(=O)c1cc2cc(C)ccc2n1C | > 501 | 173
105 | NCC1CCCN(c2ncccn2)C1 (stereo not given) | > 501 | 288
